Laboratory results: patent US10441578B2, “Altering expression level of glutathione S-transferase genes by treating a human subject with a nitroxide” (priority 2018, dated 2019)

Columns and labels:
Type in all cases: in vivo
[1] = tested on: Glutathione S-transferase kappa1 (Gstk1); assay: Microarray gene expression in white adipose tissue of Tempol-fed mice
Method: (§1) To assess the effects of Tempol on gene expression, Tempol was administered to experimental mice at a dose of 5 mg/g of food from 14 months to 31 months after birth. Mice receiving the same food without the addition of Tempol were used as a negative control. At the age of 31 months, the experimental animals were sacrificed and the hearts were surgically removed. The expression of a broad spectrum of genes in white adipose tissue tissue was assessed using chip-based microarray technology. Such chips are well known in the art and are widely used to assess gene expression.

[2] = tested on: Glutathione S-transferase, alpha 3 (Gsta3); assay: as above
Method: as §1

[3] = tested on: Glutathione S-transferase, alpha 4 (Gsta4); assay: as above
Method: as §1

[4] = tested on: Glutathione S-transferase, mu 1 (Gstm1); assay: as above
Method: as §1

[5] = tested on: Glutathione S-transferase, mu 3 (Gstm3); assay: as above
Method: as §1

[6] = tested on: Glutathione S-transferase, mu 4 (Gstm4); assay: as above
Method: as §1

[7] = tested on: Glutathione S-transferase, mu 6 (Gstm6); assay: as above
Method: as §1

[8] = tested on: Glutathione S-transferase, pi 1 (Gstp1); assay: as above
Method: as §1

[9] = tested on: Glutathione S-transferase, theta 1 (Gstt1); assay: as above
Method: as §1

[10] = tested on: Glutathione S-transferase, theta 2 (Gstt2); assay: as above
Method: as §1

[11] = tested on: Gstm3, Gstm6, Gsta3, Gstt1, Gsta4, Gstm1, Gstm4, Gstt2, Gstp1, or Gstk1; assay: Treatment of a human subject with a nitroxide antioxidant, serum level of GST; conditions: 1500 mg per day for 180 days
Method: (§2) A 70-kilogram human subject over the age of 65 is identified for decreased expression level of Gstm3, Gstm6, Gsta3, Gstt1, Gsta4, Gstm1, Gstm4, Gstt2, Gstp1, or Gstk1. The human subject is administered a dose of 1500 mg of a nitroxide antioxidant (e.g., Tempol) per day for 180 days. This may be administered in a single dose, or may be administered as a number of smaller doses over a 24-hour period: for example, three 500-mg doses at eight-hour intervals. Following treatment, the serum level of Gstm3, Gstm6, Gsta3, Gstt1, Gsta4, Gstm1, Gstm4, Gstt2, Gstp1, or Gstk1, is increased.
as §2, with “65 and having a cardiovascular disease” for “65”
as §2, with “subject” for “subject over the age of 65”
as §2, with “subject” for “subject over the age of 65”, “Gstk1 that is associated with a disease (e.g., caused by or causing a disease).” for “Gstk1.”
as §2, with “at risk” for “over the age”, “developing a cancer (e.g., colorectal cancer) or having a cancer” for “65”
as §2, with “at risk” for “over the age”, “developing or having an autoimmune disease (e.g., rheumatoid arthritis)” for “65”
A 70-kilogram human subject of person at risk of developing, or having, a condition due to aging is identified. The human subject is administered a dose of 1500 mg of a nitroxide antioxidant (e.g., Tempol) per day for 180 days. […]

[12] = Tempol-treated vs control mice, microarray
[13] = Tempol-treated vs control mice, P-value 0.003
[14] = Tempol-treated vs control mice, P-value 0.001

CC1(C)CC(O)CC(C)(C)N1[O] [Tempol, 4-hydroxy-2,2,6,6-tetramethylpiperidine-1-oxyl]
Expression, Tempol-treated mice ([1]; Tempol 5 mg/g of food from 14 to 31 months after birth, microarray, control mice 1140): 1325
Fold change ([1]; Tempol-treated vs control mice, P-value 0.015): 1.16
Change in expression (in words) [1, 12]: statistically significant increase in expression
Expression, Tempol-treated mice ([2]; Tempol 5 mg/g of food from 14 to 31 months after birth, microarray, control mice 668): 1183
Fold change ([2]; Tempol-treated vs control mice, P-value 0.004): 1.77
Change in expression (in words) [2, 12]: statistically significant increase in expression
Expression, Tempol-treated mice ([3]; Tempol 5 mg/g of food from 14 to 31 months after birth, microarray, control mice 195): 284
Fold change ([3]; Tempol-treated vs control mice, P-value 0.006): 1.45
Change in expression (in words) [3, 12]: statistically significant increase in expression
Expression, Tempol-treated mice ([4]; Tempol 5 mg/g of food from 14 to 31 months after birth, microarray, control mice 6291): 8548
Fold change [4, 13]: 1.36
Change in expression (in words) [4, 12]: statistically significant increase in expression
Expression, Tempol-treated mice ([5]; Tempol 5 mg/g of food from 14 to 31 months after birth, microarray, control mice 10): 74
Fold change [5, 14]: 7.52
Change in expression (in words) [5, 12]: statistically significant increase in expression
Expression, Tempol-treated mice ([6]; Tempol 5 mg/g of food from 14 to 31 months after birth, microarray, control mice 416): 533
Fold change [6, 13]: 1.28
Change in expression (in words) [6, 12]: statistically significant increase in expression
Expression, Tempol-treated mice ([7]; Tempol 5 mg/g of food from 14 to 31 months after birth, microarray, control mice 147): 265
Fold change ([7]; Tempol-treated vs control mice, P-value 0.034): 1.8
Change in expression (in words) [7, 12]: statistically significant increase in expression
Expression, Tempol-treated mice ([8]; Tempol 5 mg/g of food from 14 to 31 months after birth, microarray, control mice 5711): 6812
Fold change ([8]; Tempol-treated vs control mice, P-value 0.005): 1.19
Change in expression (in words) [8, 12]: statistically significant increase in expression
Expression, Tempol-treated mice ([9]; Tempol 5 mg/g of food from 14 to 31 months after birth, microarray, control mice 1017): 1619
Fold change [9, 14]: 1.59
Change in expression (in words) [9, 12]: statistically significant increase in expression
Expression, Tempol-treated mice ([10]; Tempol 5 mg/g of food from 14 to 31 months after birth, microarray, control mice 446): 546
Fold change ([10]; Tempol-treated vs control mice, P-value 0.035): 1.22
Change in expression (in words) [10, 12]: statistically significant increase in expression
Serum level of GST following treatment ([11]; Example 2: human subject over the age of 65 with decreased expression): increased
Serum level of GST following treatment ([11]; Example 3: human subject over the age of 65 having a cardiovascular disease): increased
Serum level of GST following treatment ([11]; Example 4: human subject with decreased expression level): increased
Serum level of GST following treatment ([11]; Example 5: decreased expression associated with a disease): increased
Serum level of GST following treatment ([11]; Example 6: human subject at risk of developing or having a cancer): increased
Serum level of GST following treatment ([11]; Example 7: human subject at risk of developing or having an autoimmune disease): increased
Serum level of GST following treatment ([11]; Example 8: human subject, condition due to aging): increased
Serum level of GST following treatment ([11]; Example 9: human subject at risk of developing or having a neurodegenerative disease): increased
Serum level of GST following treatment ([11]; Example 10: human subject having an infection): increased
